Experimental data from patent US9719127B2, “Dual inducible vectors and cell lines” (priority 2012, dated 2017).

What was measured:
[1] = test system: CCR5-using HIV-1 isolate (live, replication-competent JR-CSF)
[2] = test system: X4-tropic viruses; experiment: GGR cell G.Luc signal with X4-tropic viruses; format: cell-based, HIV; conditions: GGR cells, low endogenous CXCR4

Substance: Maraviroc
- Gaussia luciferase signal of CCR5-mediated infection in the presence of maraviroc [1]: reproducibly reduced
- G.Luc signal with X4-tropic viruses under maraviroc [2]: resistant to maraviroc inhibition
